From patent US20110076293A1, “TRIPTOLIDE DERIVATIVES FOR MODULATION OF APOPTOSIS AND IMMUNOSUPPRESSION” (priority 2002, published 2011)
Where two headings read alike, the source gives them in different places.

System: Jurkat human T lymphocyte cell line
Experiment: Apoptosis assay (Annexin V) of compounds incubated with human serum
Conditions: for EC50: read-out: ED50 (nM) in apoptosis assay after incubation with serum, 37° C.
Procedure, shortened: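 Test compounds at 20 mM were preincubated in pooled human serum at 37° C for varying times, then serially diluted to final 1–10,000 nM. Jurkat cells (1×10^5 per well) were exposed for 24 h at 37° C, and apoptosis was scored by Annexin V-FITC flow cytometry. ED50 came from dose-response curves, and % conversion was expressed relative to the triptolide ED50 in the same serum.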

[1] = Table 3, human serum, 0 hr, 10000 nM
[2] = Table 3, human serum, 48 hr, 1 nM
[3] = Table 3, human serum, 48 hr, 3 nM
[4] = Table 3, human serum, 48 hr, 10 nM
[5] = Table 3, human serum, 48 hr, 30 nM
[6] = Table 3, human serum, 48 hr, 100 nM
[7] = Table 3, human serum, 48 hr, 300 nM
[8] = Table 3, human serum, 48 hr, 1000 nM
[9] = Table 3, human serum, 48 hr, 3000 nM
[10] = Table 3, human serum, 48 hr, 10000 nM
[11] = Table 4, serum, 48 hr, 10000 nM
[12] = Table 5, human serum (48 hrs), 1 nM
[13] = Table 5, human serum (48 hrs), 3 nM
[14] = Table 5, human serum (48 hrs), 10 nM
[15] = Table 5, human serum (48 hrs), 30 nM
[16] = Table 5, human serum (48 hrs), 100 nM
[17] = Table 5, human serum (48 hrs), 300 nM
[18] = Table 5, human serum (48 hrs), 1000 nM
[19] = Table 5, human serum (48 hrs), 3000 nM
[20] = incubation time in human serum 0.5 hours
[21] = incubation time in human serum 1 hour
[22] = incubation time in human serum 24 hours
[23] = incubation time in human serum 48 hours
[24] = after 48 hr. incubation in human serum

For `CC(C)[C@]12O[C@H]1[C@@H]1O[C@]13[C@]1(O[C@H]1C[C@H]1C4=C(CC[C@@]13C)C(=O)OC4)[C@@H]2O` [PG490, Triptolide], the “% apoptotic cells at given concentration (nM)” value (“% apoptotic cells” for short) [1] was 94.9%, the “% apoptotic cells” value [2] was 8.5% and the “% apoptotic cells” value [3] was 8.5%. The “% apoptotic cells” value [4] was 8.5%, the “% apoptotic cells” value [5] was 26.2% and the “% apoptotic cells” value [6] was 91.7%. The “% apoptotic cells” value [7] was 93.4%, the “% apoptotic cells” value [8] was 94.6% and the “% apoptotic cells” value [9] was 95.2%. The “% apoptotic cells” value [10] was 95.4%, the “% apoptotic cells” value (Table 3, medium only, 10000 nM) was 96.5% and the “% apoptotic cells” value (Table 4, medium, 10000 nM) was 93.4%. The “% apoptotic cells” value (Table 4, serum, 0 hr, 10000 nM) was 92.1%, the “% apoptotic cells” value (Table 4, serum, 48 hr, 0.03 nM) was 7.0% and the “% apoptotic cells” value (Table 4, serum, 48 hr, 0.1 nM) was 6.9%. For the same compound, the “% apoptotic cells” value (Table 4, serum, 48 hr, 0.3 nM) was 6.8%, the “% apoptotic cells” value (Table 4, serum, 48 hr, 1 nM) was 6.4% and the “% apoptotic cells” value (Table 4, serum, 48 hr, 3 nM) was 7.0%. For the same compound, the “% apoptotic cells” value (Table 4, serum, 48 hr, 10 nM) was 7.1%, the “% apoptotic cells” value (Table 4, serum, 48 hr, 30 nM) was 29.4% and the “% apoptotic cells” value (Table 4, serum, 48 hr, 100 nM) was 90.9%. For the same compound, the “% apoptotic cells” value (Table 4, serum, 48 hr, 300 nM) was 93.0%, the “% apoptotic cells” value (Table 4, serum, 48 hr, 1000 nM) was 93.2% and the “% apoptotic cells” value (Table 4, serum, 48 hr, 3000 nM) was 94.6%. For the same compound, the “% apoptotic cells” value [11] was 94.2%, the “% apoptotic cells” value [12] was 8.8% and the “% apoptotic cells” value [13] was 8.5%. The “% apoptotic cells” value [14] was 8.6%, the “% apoptotic cells” value [15] was 15.9% and the “% apoptotic cells” value [16] was 86.5%. For the same compound, the “% apoptotic cells” value [17] was 90.7%, the “% apoptotic cells” value [18] was 91.7% and the “% apoptotic cells” value [19] was 93.1%. For the same compound, the “% apoptotic cells” value (Table 5, medium, 3000 nM) was 93.7%.

In the case of `CC(C)[C@]12O[C@H]1[C@@H]1O[C@]13[C@]1(O[C@H]1C[C@H]1C4=C(CC[C@@]13C)C(=O)OC4)[C@@H]2OC(=O)CCC(=O)O` [PG490-88, triptolide-14-succinate, reference compound], the “% apoptotic cells” value [1] is reported as 89.2%, the “% apoptotic cells” value [2] is reported as 7.8% and the “% apoptotic cells” value [3] is reported as 8.1%. The “% apoptotic cells” value [4] was 7.8%, the “% apoptotic cells” value [5] was 9.1% and the “% apoptotic cells” value [6] was 51.5%. The “% apoptotic cells” value [7] was 92.1%, the “% apoptotic cells” value [8] was 93.9% and the “% apoptotic cells” value [9] was 94.1%. For the same compound, the “% apoptotic cells” value [10] was 95.1%, the “% apoptotic cells” value (Table 3, medium only, 10000 nM) was 93.8% and the “% apoptotic cells” value (Table 4, medium, 10000 nM) was 89.7%. The “% apoptotic cells” value (Table 4, serum, 0 hr, 10000 nM) was 82.9%, the “% apoptotic cells” value (Table 4, serum, 48 hr, 0.03 nM) was 6.6% and the “% apoptotic cells” value (Table 4, serum, 48 hr, 0.1 nM) was 6.5%. The “% apoptotic cells” value (Table 4, serum, 48 hr, 0.3 nM) was 7.0%, the “% apoptotic cells” value (Table 4, serum, 48 hr, 1 nM) was 6.0% and the “% apoptotic cells” value (Table 4, serum, 48 hr, 3 nM) was 6.2%. For the same compound, the “% apoptotic cells” value (Table 4, serum, 48 hr, 10 nM) was 6.2%, the “% apoptotic cells” value (Table 4, serum, 48 hr, 30 nM) was 6.8% and the “% apoptotic cells” value (Table 4, serum, 48 hr, 100 nM) was 30.5%. The “% apoptotic cells” value (Table 4, serum, 48 hr, 300 nM) was 89.6%, the “% apoptotic cells” value (Table 4, serum, 48 hr, 1000 nM) was 92.6% and the “% apoptotic cells” value (Table 4, serum, 48 hr, 3000 nM) was 92.8%. The “% apoptotic cells” value [11] was 93.9%, the “% apoptotic cells” value [12] was 8.6% and the “% apoptotic cells” value [13] was 9.3%. The “% apoptotic cells” value [14] was 8.7%, the “% apoptotic cells” value [15] was 7.8% and the “% apoptotic cells” value [16] was 23.3%. The “% apoptotic cells” value [17] was 88.4%, the “% apoptotic cells” value [18] was 90.5% and the “% apoptotic cells” value [19] was 91.7%. For the same compound, the “% apoptotic cells” value (Table 5, medium, 3000 nM) was 64.8%, the “Conversion, as relative ED50 compared to triptolide (%)” value (“Conversion, as relative ED50 … (%)” below) [20] was 2% and the “Conversion, as relative ED50 … (%)” value [21] was 2%. For the same compound, the “Conversion, as relative ED50 … (%)” value [22] was 18%, the “Conversion, as relative ED50 … (%)” value [23] was 43% and the EC50 [20] was 2580 nM. For the same compound, the EC50 [21] was 2270 nM, the EC50 [22] was 328 nM and the EC50 [23] was 147 nM.

In the case of `CCNC(=O)O[C@@H]1[C@@]2(C(C)C)O[C@H]2[C@@H]2O[C@]23[C@]12O[C@H]2C[C@H]1C2=C(CC[C@@]13C)C(=O)OC2` [PG666, Triptolide 14-Ethyl Carbamate], the “% apoptotic cells” value [1] is reported as 93.6%, the “% apoptotic cells” value [2] is reported as 13.4% and the “% apoptotic cells” value [3] is reported as 14.4%. For the same compound, the “% apoptotic cells” value [4] was 14.0%, the “% apoptotic cells” value [5] was 10.1% and the “% apoptotic cells” value [6] was 11.0%. The “% apoptotic cells” value [7] was 20.6%, the “% apoptotic cells” value [8] was 91.0% and the “% apoptotic cells” value [9] was 92.9%. The “% apoptotic cells” value [10] was 93.5%, the “% apoptotic cells” value (Table 3, medium only, 10000 nM) was 94.3% and the “% apoptotic cells” value (Table 4, medium, 10000 nM) was 92.6%. The “% apoptotic cells” value (Table 4, serum, 0 hr, 10000 nM) was 87.2%, the “% apoptotic cells” value (Table 4, serum, 48 hr, 0.03 nM) was 39.9% and the “% apoptotic cells” value (Table 4, serum, 48 hr, 0.1 nM) was 40.7%. For the same compound, the “% apoptotic cells” value (Table 4, serum, 48 hr, 0.3 nM) was 40.8%, the “% apoptotic cells” value (Table 4, serum, 48 hr, 1 nM) was 41.3% and the “% apoptotic cells” value (Table 4, serum, 48 hr, 3 nM) was 39.8%. The “% apoptotic cells” value (Table 4, serum, 48 hr, 10 nM) was 39.8%, the “% apoptotic cells” value (Table 4, serum, 48 hr, 30 nM) was 39.1% and the “% apoptotic cells” value (Table 4, serum, 48 hr, 100 nM) was 40.2%. For the same compound, the “% apoptotic cells” value (Table 4, serum, 48 hr, 300 nM) was 44.5%, the “% apoptotic cells” value (Table 4, serum, 48 hr, 1000 nM) was 88.6% and the “% apoptotic cells” value (Table 4, serum, 48 hr, 3000 nM) was 96.8%. The “% apoptotic cells” value [11] was 92.3%, the “% apoptotic cells” value [12] was 9.8% and the “% apoptotic cells” value [13] was 10.9%. The “% apoptotic cells” value [14] was 10.4%, the “% apoptotic cells” value [15] was 10.2% and the “% apoptotic cells” value [16] was 9.5%. The “% apoptotic cells” value [17] was 14.9%, the “% apoptotic cells” value [18] was 87.7% and the “% apoptotic cells” value [19] was 91.0%. For the same compound, the “% apoptotic cells” value (Table 5, medium, 1 nM) was 13.9%, the “% apoptotic cells” value (Table 5, medium, 3 nM) was 13.1% and the “% apoptotic cells” value (Table 5, medium, 10 nM) was 13.4%. The “% apoptotic cells” value (Table 5, medium, 30 nM) was 13.0%, the “% apoptotic cells” value (Table 5, medium, 100 nM) was 13.2% and the “% apoptotic cells” value (Table 5, medium, 300 nM) was 14.2%. The “% apoptotic cells” value (Table 5, medium, 1000 nM) was 14.1%, the “% apoptotic cells” value (Table 5, medium, 3000 nM) was 92.1% and the “apoptotic activity (in words)” value [24] was “more active than PG688”. For the same compound, the “concentration for equal apoptotic activity relative to PG490 (triptolide)” value [24] was roughly 10 fold.
